Source: ChEMBL document CHEMBL1177695, “Discovery and development of natural product-derived chemotherapeutic agents based on a medicinal chemistry approach” (J Nat Prod, 2010)
In brackets after ≈: the same amount, converted by molar mass. Activity calls are given as the source filed them. The calls are words filed in the database; no cut-off is given here.

Legend:
[1] = system: Human immunodeficiency virus 1; assay: Antiviral activity against HIV1 infected in human H9 cells after 4 days by p24 antigen ELISA; type: functional, organism-based; details: Human immunodeficiency virus 1, H9, 96 h
[2] = system: Human immunodeficiency virus 1; assay: Anti-HIV-1 activity in human H9 cells; details: H9, 96 h
[3] = Therapeutic index, ratio of IC50 for human H9 cells to EC50 for HIV1; type: cell-based; details: read-out: TI
Hep-2 (human) = assay: Cytotoxicity against human Hep-2 cells; details: for EC50: read-out: ED50 (the source's name)
Tubulin = assay: Inhibition of tubulin polymerization
A549 [4] = assay: Cytotoxicity against human A549 cells; type: functional, cell-based; details: Homo sapiens, A549
MCF7 = assay: Cytotoxicity against human MCF7 cells after 72 hrs by sulforhodamine B assay; type: functional; details: MCF7, 72 h, read-out: ED50 (the source's name)
ZR-75-1 = assay: Cytotoxicity against human ZR-75-1 cells after 72 hrs by sulforhodamine B assay; type: functional; details: ZR-75-1, 72 h, read-out: ED50 (the source's name)
SK-BR-3 = assay: Cytotoxicity against human SK-BR-3 cells after 72 hrs by sulforhodamine B assay; type: functional; details: SK-BR-3, 72 h, read-out: ED50 (the source's name)
MDA-MB-231 = assay: Cytotoxicity against human MDA-MB-231 cells after 72 hrs by sulforhodamine B assay; type: functional; details: MDA-MB-231, 72 h, read-out: ED50 (the source's name)
[5] = Inhibition of tubulin polymerization
KB [6] = assay: Cytotoxicity against human KB cells; type: functional, cell-based
KB [7] = assay: Cytotoxicity against CPT-resistant human KB cells […] reduced level of topoisomerase; type: functional, cell-based
[8] = Cytotoxicity against human KB-7d cells expressing multidrug-resistant protein; type: functional, cell-based; details: KB7D
[9] = Cytotoxicity against vincristine-resistant human KB/VCR cells overexpressing P-glycoprotein; type: functional, cell-based
A-431 = assay: Cytotoxicity against human A431 cells after 3 days by sulforhodamine B assay; type: functional, cell-based; details: A-431, 72 h
PC-3 = assay: Cytotoxicity against human PC3 cells after 3 days by sulforhodamine B assay; type: functional, cell-based; details: PC-3, 72 h
KB [10] = assay: Cytotoxicity against human KB cells after 3 days by sulforhodamine B assay; type: functional, cell-based; details: 72 h
[11] = Cytotoxicity against human KBVIN cells after 3 days by sulforhodamine B assay; type: functional, cell-based; details: 72 h
HCT-8 = assay: Cytotoxicity against human HCT8 cells after 3 days by sulforhodamine B assay; type: functional, cell-based; details: HCT-8, 72 h
HUVEC = assay: Cytotoxicity against HUVEC after 3 days by sulforhodamine B assay; type: cell-based; details: Homo sapiens, 72 h
1A9 = assay: Cytotoxicity against human 1A9 cells after 3 days by sulforhodamine B assay; type: functional, cell-based; details: 1A9, 72 h
A549 [12] = assay: Cytotoxicity against human A549 cells after 3 days by sulforhodamine B assay; type: functional, cell-based; details: A549, 72 h
KB [13] = assay: Selectivity ratio of EC50 for human KB cells to EC50 for vincristine-resistant human KB cells; type: functional
[14] = Antitumor activity against rat Walker 256 cells allografted in rat at 2.5 mg/kg relative to control; type: functional
P388 = assay: Antitumor activity against mouse P388 cells allografted in mouse at 8 mg/kg relative to control; type: functional
[15] = Therapeutic index, ratio of IC50 for human H9 cells to EC50 for multidrug-resistant HIV1 RTMDR1; type: cell-based; details: read-out: TI
[16] = system: Human immunodeficiency virus 1; assay: Antiviral activity against multidrug-resistant HIV1 RTMDR1 infected in H9 cells assessed as inhibition of viral replication by p24 antigen ELISA; type: functional, organism-based; details: Human immunodeficiency virus 1, RTMDR1, H9
[17] = system: Human immunodeficiency virus 1; assay: Antiviral activity against HIV1 3B infected in H9 cells assessed as inhibition of viral replication by p24 antigen ELISA; type: functional, organism-based; details: Human immunodeficiency virus 1, 3B, H9; read-out: EC50
H9 = assay: Cytotoxicity against human H9 cells after 4 days by coulter counter; type: cell-based; details: Homo sapiens, H9, 96 h
[18] = Therapeutic index, ratio of IC50 for human H9 cells to EC50 for HIV 3B; type: cell-based; details: read-out: TI
Aureobasidium pullulans = assay: Antifungal activity against Aureobasidium pullulans; type: functional
Pseudomonas fluorescens = assay: Antibacterial activity against Pseudomonas fluorescens; type: functional
Pseudomonas aeruginosa = assay: Antibacterial activity against Pseudomonas aeruginosa; type: functional
Aspergillus niger = assay: Antifungal activity against Aspergillus niger; type: functional
Escherichia coli = assay: Antibacterial activity against Escherichia coli; type: functional
Staphylococcus aureus = assay: Antibacterial activity against Staphylococcus aureus; type: functional

## C=C(C)[C@@H]1CC[C@]2(C(=O)O)CC[C@]3(C)[C@H](CC[C@@H]4[C@@]5(C)CC[C@H](OC(=O)CCCC(=O)O)C(C)(C)[C@@H]5CC[C@]43C)[C@@H]12
[1]
  IC50: 12.8 µM
[2]
  EC50: 0.044 µM
[3]
  selectivity ratio: 292

## C=C1C(=O)O[C@@H]2C[C@@H](C)[C@@H]3CCC(=O)[C@@]3(C)[C@@H](O)[C@H]12
Hep-2 (human)
  EC50: 3.84 µg/mL (≈ 14.5 µM)

## Cc1cnc2nc(-c3cccc4ccccc34)cc(O)c2c1
Tubulin
  IC50: 0.55 µM

## COc1ccc2c(CNCCCCCCO)cc3cc4c(cc3c2c1)OCO4
A549 [4]
  IC50: 0.13 µM

## COc1cccc2c1ccc1c3occ(C)c3c(=O)oc21
MCF7
  EC50: 2.3 µg/mL (≈ 8.21 µM)
ZR-75-1
  EC50: 0.1 µg/mL (≈ 0.357 µM)
SK-BR-3
  EC50: 0.2 µg/mL (≈ 0.714 µM)
MDA-MB-231
  EC50: 6.4 µg/mL (≈ 22.8 µM)

## Cc1ccc2c(=O)cc(-c3cccc(F)c3)[nH]c2n1
Tubulin
  IC50: 0.53 µM

## COc1ccc2c(c1)C(O)CCc1cc(OC)c(OC)c(OC)c1-2 (stereo not given)
[5]
  IC50: 2 µM
KB [6]
  EC50: 0.02 µg/mL (≈ 0.0605 µM)
KB [7]
  EC50: 0.022 µg/mL (≈ 0.0666 µM)
[8]
  EC50: 0.013 µg/mL (≈ 0.0393 µM)
[9]
  EC50: 0.013 µg/mL (≈ 0.0393 µM)

## COC1=C(C)C(O)=C(C(=O)/C=C/c2ccccc2)C(=O)C1(C)C [DESMOSDUMOTIN C]
A-431
  EC50: 3 µg/mL (≈ 9.6 µM)
PC-3
  EC50: 3 µg/mL (≈ 9.6 µM)
KB [10]
  EC50: 3 µg/mL (≈ 9.6 µM)
[11]
  EC50: 3 µg/mL (≈ 9.6 µM)
HCT-8
  EC50: 3 µg/mL (≈ 9.6 µM)
HUVEC
  EC50: 3 µg/mL (≈ 9.6 µM)
1A9
  EC50: 3 µg/mL (≈ 9.6 µM)
A549 [12]
  EC50: 3 µg/mL (≈ 9.6 µM)

## CCC1=C(O)c2c(oc(-c3ccc(CC)cc3)cc2=O)C(CC)(CC)C1=O [6,8,8-TRIETHYL-4-ETHYL DESMOSDUMOTIN B]
[11]
  EC50: 0.025 µg/mL (≈ 0.0682 µM)
KB [13]
  Ratio EC50: 320

## C=C1C(=O)O[C@@H]2C[C@@H](C)[C@@H]3C=CC(=O)[C@@]3(C)[C@@H](O)[C@H]12 [HELENALIN]
[14]
  T/C: 316%
P388
  T/C: 162%
Hep-2 (human)
  EC50: 0.08 µg/mL (≈ 0.305 µM)

## C=C(C)[C@@H]1CC[C@]2(C(=O)O)CC[C@]3(C)[C@H](CC[C@@H]4[C@@]5(C)CC[C@H](OC(=O)/C=C/C)C(C)(C)[C@@H]5CC[C@]43C)[C@@H]12
[1]
  IC50: 48 µM
[2]
  EC50: 19 µM

## CC1(C)Oc2ccc3c(=O)cc(-c4ccccc4)oc3c2[C@@H](OC(=O)C23CCC(C)(C(=O)O2)C3(C)C)[C@H]1OC(=O)C12CCC(C)(C(=O)O1)C2(C)C (stereo not given in full)
[15]
  selectivity ratio: 71
[16]
  EC50: 0.17 µM
[17]
  EC50: 0.13 µM
H9
  IC50: 12.2 µM
[18]
  selectivity ratio: 277

## C[C@@H]1C[C@H]2OC(=O)[C@@H](C)[C@H]2[C@H](O)[C@]2(C)C(=O)CC[C@@H]12
Hep-2 (human)
  ED50: inactive

## C=C1C(=O)O[C@@H]2C[C@@H](C)[C@@H]3[C@@H]4CC(=O)[C@@]3(C[C@H]12)[C@@]1(C4)C(=O)O[C@@H]2C[C@@H](C)[C@@H]3C=CC(=O)[C@@]3(C)[C@@H](O)[C@@H]21 [MICROLENIN]
[14]
  T/C: 173%

## O=C1c2ccccc2C(=O)c2c(NCC3CO3)ccc(NCC3CO3)c21 (stereo not given)
Aureobasidium pullulans
  MIC: 0.13 µg/mL (≈ 0.371 µM)
Pseudomonas fluorescens
  MIC: 0.13 µg/mL (≈ 0.371 µM)
Pseudomonas aeruginosa
  MIC: 63 µg/mL (≈ 180 µM)
Aspergillus niger
  MIC: 0.13 µg/mL (≈ 0.371 µM)
Escherichia coli
  MIC: 250 µg/mL (≈ 714 µM)
Staphylococcus aureus
  MIC: 0.13 µg/mL (≈ 0.371 µM)

## COc1ccc2c(c1)C(=O)CCc1cc(OC)c(OC)c(OC)c1-2
[5]
  IC50: 1 µM
KB [6]
  EC50: 0.057 µg/mL (≈ 0.174 µM)
KB [7]
  EC50: 0.052 µg/mL (≈ 0.158 µM)
[8]
  EC50: 0.025 µg/mL (≈ 0.0761 µM)
[9]
  EC50: > 0.063 µg/mL

## CCCC1=C(OC)C(CCC)(CCC)C(=O)/C(=C(O)\C=C\c2ccc(Br)cc2)C1=O
A-431
  EC50: 0.9 µg/mL (≈ 1.89 µM)
PC-3
  EC50: 0.9 µg/mL (≈ 1.89 µM)
KB [10]
  EC50: 0.9 µg/mL (≈ 1.89 µM)
[11]
  EC50: 0.9 µg/mL (≈ 1.89 µM)
HCT-8
  EC50: 0.9 µg/mL (≈ 1.89 µM)
HUVEC
  EC50: 0.9 µg/mL (≈ 1.89 µM)
1A9
  EC50: 0.9 µg/mL (≈ 1.89 µM)
A549 [12]
  EC50: 0.9 µg/mL (≈ 1.89 µM)

## CC(C)c1cc(=O)c2ccc3c(c2o1)[C@@H](OC(=O)C12CCC(C)(C(=O)O1)C2(C)C)[C@@H](OC(=O)C12CCC(C)(C(=O)O1)C2(C)C)C(C)(C)O3 (stereo not given in full)
[15]
  selectivity ratio: > 111
[16]
  EC50: 0.14 µM
[17]
  EC50: 0.07 µM
H9
  IC50: 15 µM
[18]
  selectivity ratio: 483

## C=C(C)[C@@H]1CC[C@]2(C(=O)O)CC[C@]3(C)[C@H](CC[C@@H]4[C@@]5(C)CC[C@H](OC(=O)CCC(=O)O)C(C)(C)[C@@H]5CC[C@]43C)[C@@H]12
[1]
  IC50: 16 µM
[2]
  EC50: 4 µM
[3]
  selectivity ratio: 4
